From patent US9302999B2, “Substituted triazoles as herbicides” (E. I. DU PONT DE NEMOURS AND COMPANY, priority 2012, dated 2016)

Tests used:
Format in all cases: in vivo
[1] = system: barnyardgrass (Echinochloa crus-galli); assay: Test A pre-/postemergence: barnyardgrass; settings: for Barnyardgrass plant response rating: Postemergence; for Plant response rating, Barnyardgrass: Preemergence
Procedure, shortened: (§1)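 Compounds, formulated with surfactant in non-phytotoxic solvent, were applied as a directed soil spray preemergence and as postemergence sprays to 2–10 cm, one- to two-leaf seedlings grown in loam soil blended with sand; visual injury, 0–100, assessed ~10 days post-treatment against untreated controls.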

[2] = system: crabgrass, large (large crabgrass, Digitaria sanguinalis); assay: Test A pre-/postemergence: crabgrass, large; settings: for Crabgrass, Large plant response rating: Postemergence; for Plant response rating, Crabgrass, Large: Preemergence
Procedure, shortened: as §1

[3] = system: foxtail, giant (giant foxtail, Setaria faberii); assay: Test A pre-/postemergence: foxtail, giant; settings: for Foxtail, Giant plant response rating: Postemergence; for Plant response rating, Foxtail, Giant: Preemergence
Procedure, shortened: as §1

[4] = system: morningglory (Ipomoea spp.); assay: Test A pre-/postemergence: morningglory; settings: for Morningglory plant response rating: Postemergence; for Plant response rating, Morningglory: Preemergence
Procedure, shortened: as §1

[5] = system: pigweed (Amaranthus retroflexus); assay: Test A pre-/postemergence: pigweed; settings: for Pigweed plant response rating: Postemergence; for Plant response rating, Pigweed: Preemergence
Procedure, shortened: as §1

[6] = system: velvetleaf (Abutilon theophrasti); assay: Test A pre-/postemergence: velvetleaf; settings: for Velvetleaf plant response rating: Postemergence; for Plant response rating, Velvetleaf: Preemergence
Procedure, shortened: as §1

[7] = system: wheat (Triticum aestivum); assay: Test A pre-/postemergence: wheat; settings: for Wheat plant response rating: Postemergence; for Plant response rating, Wheat: Preemergence
Procedure, shortened: as §1

[8] = system: corn (Zea mays); assay: Test A pre-/postemergence: corn; settings: for Corn plant response rating: Postemergence; for Plant response rating, Corn: Preemergence
Procedure, shortened: as §1

[9] = system: rice (Oryza sativa); assay: Test B flooded paddy: rice; settings: Flood; 250 g ai/ha; applied to paddy water at 2-leaf stage; visually evaluated after 13 to 15 days
Procedure, shortened: (§2)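 Each compound is applied to the floodwater of pots holding 2-leaf seedlings, water standing 3 cm over the soil throughout. Plants stay in a greenhouse 13 to 15 days before visual scoring against controls from 0 (no effect) to 100 (complete control).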

[10] = system: sedge, umbrella (small-flower umbrella sedge Cyperus difformis); assay: Test B flooded paddy: sedge, umbrella; settings: Flood; 250 g ai/ha; applied to paddy water at 2-leaf stage; visually evaluated after 13 to 15 days
Procedure, shortened: as §2

[11] = system: ducksalad (Heteranthera limosa); assay: Test B flooded paddy: ducksalad; settings: Flood; 250 g ai/ha; applied to paddy water at 2-leaf stage; visually evaluated after 13 to 15 days
Procedure, shortened: as §2

[12] = system: barnyardgrass (Echinochloa crus-galli); assay: Test B flooded paddy: barnyardgrass; settings: Flood; 250 g ai/ha; applied to paddy water at 2-leaf stage; visually evaluated after 13 to 15 days
Experimental: Seeds selected from rice (Oryza sativa), sedge, umbrella (small-flower umbrella sedge Cyperus difformis), ducksalad (Heteranthera limosa), and barnyardgrass (Echinochloa crus-galli) were grown to the 2-leaf stage for testing. At time of treatment, test pots were flooded to 3 cm above the soil surface, treated by application of test compounds directly to the paddy water, and then maintained at that water depth for the duration of the test.
Treated plants and controls were maintained in a greenhouse for 13 to 15 days, after which time all species were compared to controls and visually evaluated. Plant response ratings, summarized in Table B, are based on a scale of 0 to 100 where 0 is no effect and 100 is complete control. A dash (-) response means no test result.

[13] = 125 g ai/ha, 0 to 100 scale, 0 is no effect, 100 is complete control
[14] = 500 g ai/ha, visual rating on 0 to 100 scale (0 no effect, 100 complete control), approximately ten days
[15] = 125 g ai/ha, 0 to 100 scale (0 no effect, 100 complete control)
[16] = 500 g ai/ha, 0 to 100 scale, 0 is no effect, 100 is complete control

Structure (SMILES)	Barnyardgrass plant response rating [1, 13]	Barnyardgrass plant response rating [1, 14]	Plant response rating, Barnyardgrass [1, 15]	Plant response rating, Barnyardgrass [1, 16]	Crabgrass, Large plant response rating [2, 13]	Crabgrass, Large plant response rating [2, 14]	Plant response rating, Crabgrass, Large [2, 15]	Plant response rating, Crabgrass, Large [2, 16]	Foxtail, Giant plant response rating [3, 13]	Foxtail, Giant plant response rating [3, 14]	Plant response rating, Foxtail, Giant [3, 15]	Plant response rating, Foxtail, Giant [3, 16]	Pigweed plant response rating [5, 13]	Pigweed plant response rating [5, 14]	Plant response rating, Pigweed [5, 15]	Plant response rating, Pigweed [5, 16]	Velvetleaf plant response rating [6, 13]	Velvetleaf plant response rating [6, 14]	Plant response rating, Velvetleaf [6, 15]	Plant response rating, Velvetleaf [6, 16]	other results
CSc1nn(-c2ccc(F)cc2)nc1Cc1ccnc(C(F)(F)F)c1 [Compound 27]	0	20	0	10	30	40	20	40	30	40	10	80	90	100	0	80	40	50	0	0	Morningglory plant response rating [4, 13]: 40; Morningglory plant response rating [4, 14]: 90; Plant response rating, Morningglory [4, 15]: 0; Plant response rating, Morningglory [4, 16]: 0; Wheat plant response rating [7, 13]: 20; Wheat plant response rating [7, 14]: 40; Plant response rating, Wheat [7, 15]: 0; Plant response rating, Wheat [7, 16]: 0; Corn plant response rating [8, 13]: 20; Corn plant response rating [8, 14]: 20; Plant response rating, Corn [8, 15]: 0; Plant response rating, Corn [8, 16]: 0; Plant response rating, Rice (0 to 100 scale, 0 is no effect, 100 is complete control) [9]: 10; Plant response rating, Sedge, Umbrella (0 to 100 scale, 0 is no effect, 100 is complete control) [10]: 20; Plant response rating, Ducksalad (0 to 100 scale, 0 is no effect, 100 is complete control) [11]: 50; Plant response rating, Barnyardgrass (0 to 100 scale, 0 is no effect, 100 is complete control) [12]: 20
Cc1ccc(-n2nc(C)c(C(=O)c3cccc(C(F)(F)F)c3)n2)cc1 [Compound 44]	20	20	0	30	30	40	60	90	20	30	70	90	70	90	20	90	60	70	0	50	Morningglory plant response rating [4, 13]: 20; Morningglory plant response rating [4, 14]: 70; Wheat plant response rating [7, 13]: 20; Wheat plant response rating [7, 14]: 30; Plant response rating, Wheat [7, 15]: 0; Plant response rating, Wheat [7, 16]: 30; Corn plant response rating [8, 13]: 30; Corn plant response rating [8, 14]: 30; Plant response rating, Corn [8, 15]: 0; Plant response rating, Corn [8, 16]: 20; Plant response rating, Rice (0 to 100 scale, 0 is no effect, 100 is complete control) [9]: 0; Plant response rating, Sedge, Umbrella (0 to 100 scale, 0 is no effect, 100 is complete control) [10]: 0; Plant response rating, Ducksalad (0 to 100 scale, 0 is no effect, 100 is complete control) [11]: 0; Plant response rating, Barnyardgrass (0 to 100 scale, 0 is no effect, 100 is complete control) [12]: 0
Cc1nn(-c2ccc(Br)cc2)nc1Oc1ccnc(C(F)(F)F)c1 [Compound 53]	90	90	80	100	90	90	100	100	90	90	100	100	100	100	90	100	80	100	10	50	Plant response rating, Morningglory [4, 15]: 30; Plant response rating, Morningglory [4, 16]: 40; Wheat plant response rating [7, 13]: 20; Wheat plant response rating [7, 14]: 30; Plant response rating, Wheat [7, 15]: 10; Plant response rating, Wheat [7, 16]: 30; Corn plant response rating [8, 13]: 30; Corn plant response rating [8, 14]: 40; Plant response rating, Corn [8, 15]: 0; Plant response rating, Corn [8, 16]: 20; Plant response rating, Rice (0 to 100 scale, 0 is no effect, 100 is complete control) [9]: 50; Plant response rating, Sedge, Umbrella (0 to 100 scale, 0 is no effect, 100 is complete control) [10]: 85; Plant response rating, Ducksalad (0 to 100 scale, 0 is no effect, 100 is complete control) [11]: 85; Plant response rating, Barnyardgrass (0 to 100 scale, 0 is no effect, 100 is complete control) [12]: 60
Cc1nn(-c2ccc(F)c(F)c2)nc1Cc1ccnc(C(F)(F)F)c1 [Compound 55]	90	90	90	100	80	90	100	100	90	90	100	100	100	100	100	100	100	100	40	70	Plant response rating, Morningglory [4, 15]: 50; Plant response rating, Morningglory [4, 16]: 80; Wheat plant response rating [7, 13]: 20; Wheat plant response rating [7, 14]: 40; Plant response rating, Wheat [7, 15]: 10; Plant response rating, Wheat [7, 16]: 40; Corn plant response rating [8, 13]: 20; Corn plant response rating [8, 14]: 50; Plant response rating, Corn [8, 15]: 20; Plant response rating, Corn [8, 16]: 50; Plant response rating, Rice (0 to 100 scale, 0 is no effect, 100 is complete control) [9]: 60; Plant response rating, Sedge, Umbrella (0 to 100 scale, 0 is no effect, 100 is complete control) [10]: 100; Plant response rating, Ducksalad (0 to 100 scale, 0 is no effect, 100 is complete control) [11]: 100; Plant response rating, Barnyardgrass (0 to 100 scale, 0 is no effect, 100 is complete control) [12]: 70
Cc1cnccc1Oc1nn(-c2ccc(F)cc2)nc1C [Compound 87]	0	0	0	0	0	0	0	0	0	0	0	0	0	0	0	0	0	0	0	0	Morningglory plant response rating [4, 13]: 0; Morningglory plant response rating [4, 14]: 0; Plant response rating, Morningglory [4, 15]: 0; Plant response rating, Morningglory [4, 16]: 0; Wheat plant response rating [7, 13]: 0; Wheat plant response rating [7, 14]: 0; Plant response rating, Wheat [7, 15]: 0; Plant response rating, Wheat [7, 16]: 0; Corn plant response rating [8, 13]: 0; Corn plant response rating [8, 14]: 0; Plant response rating, Corn [8, 15]: 0; Plant response rating, Corn [8, 16]: 0; Plant response rating, Rice (0 to 100 scale, 0 is no effect, 100 is complete control) [9]: 0; Plant response rating, Sedge, Umbrella (0 to 100 scale, 0 is no effect, 100 is complete control) [10]: 50; Plant response rating, Ducksalad (0 to 100 scale, 0 is no effect, 100 is complete control) [11]: 0; Plant response rating, Barnyardgrass (0 to 100 scale, 0 is no effect, 100 is complete control) [12]: 0
